{"source": "paper PMC6410416", "about": "(Marine Drugs, 2019)", "biological_target": "T1, Ps-Mn-SOD (Paelopatides sp. YL-2018, UniProt A0A411L1L4)", "T1 construct": "ORF 255 residues, signal peptide deleted; 6xHis tag (pCold II), E. coli pG-KJE8/BL21, Ni-NTA; about 30 kDa subunit, dimer about 60 kDa; C-terminal peptide (from primer) PSKHEEL", "T1 sequence (A0A411L1L4 22-255)": "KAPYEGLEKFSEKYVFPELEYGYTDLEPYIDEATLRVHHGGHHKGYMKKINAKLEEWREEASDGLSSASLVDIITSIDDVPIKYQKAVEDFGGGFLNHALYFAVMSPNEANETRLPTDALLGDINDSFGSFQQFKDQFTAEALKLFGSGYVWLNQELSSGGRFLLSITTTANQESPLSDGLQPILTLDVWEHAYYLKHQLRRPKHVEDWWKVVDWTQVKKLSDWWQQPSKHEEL", "experiment": "SOD assay kit, inhibition of chromogen production at […] nm", "assay_type": "biochemical", "details": "superoxide generated in situ; turnover only"}
{"molecule": "[O]O", "note": "[superoxide]", "values": [{"measurement": "SOD assay kit, inhibition of chromogen production at 550 nm", "value": "SOD activity was determined via spectrophotometric method using the SOD assay kit"}]}
